Laboratory results as given in patent US11236102B2, “Oxabicycloheptane prodrugs” (Lixte Biotechnology, Inc., priority 2015, dated 2022).
Entries after “also recorded” stand apart in the source; their conditions may differ.

Experiments:
[1] = Pharmacokinetic study of 153 (iv, po) in SD rats: 153 and endothal in plasma, liver, brain; type: in vivo, SD rats; conditions: for Endothal plasma concentration: individual rats
Description: The blood, liver and brain tissue samples were collected at predetermined times from rats. […] Compound were diluted shortly before use in 4% sodium bicarbonate for sterile injection (this is the standard pediatric solution of NaHCO3 with a pH of about 8.5).
Compound 153 was freshly prepared by diluting the drugs shortly before use in 4% sodium bicarbonate for sterile injection (this is the standard pediatric solution of NaHCO3 with a pH of about 8.5). The final concentrations of 153 solutions were 0.25 mg/mL. The 153 solutions were administered via iv or po route at dose volume of 5 ml/kg according to the latest body weight. Compound 157 was freshly prepared by diluting the drugs shortly before use in 4% sodium bicarbonate for sterile injection (this is the standard pediatric solution of NaHCO3 with a pH of about 8.5). The final concentrations of […] solutions were 0.3 mg/mL. The 157 solutions were administered via iv or po route at dose volume of 5 ml/kg according to the latest body weight.
Twelve (12) female SD rats per group were dosed by iv with 153 or 157. The rats were fasted overnight prior to dosing, with free access to water. Foods were withheld for 2 hours post-dose. Blood, liver and brain tissue samples in two animals each group were collected at each time point, within 10% of the scheduled time for each time point. Two extra animals were used for analytic method development.
Blood (>0.3 mL) were collected via aorta abdominalis in anaesthetic animals into tubes containing heparin at 15 min, 1, 2, 6, 10 and 24 hours after iv administration. Liver and brain tissues were collected immediately after animal death. The liver and brain tissues were excised and rinsed with cold saline to avoid blood residual. Upon collection, each sample was placed on ice and the blood samples were subsequently centrifuged (4° C., 11000 rpm, 5 min) to separate plasma.
The obtained plasma, liver and brain tissue samples were stored at −70° C. until LC-MS/MS analysis.
Two (2) female SD rats per group were dosed by po with 153 or 157. The rats were fasted overnight prior to dosing, with free access to water. Foods were withheld for 2 hours post-dose. Blood samples (>0.3 mL) were collected via aorta abdominalis in anaesthetic animals into tubes containing heparin at 30 min, 1, 2, 6, 10 and 24 hours after po administration.
To each sample, 20 μL IS-D (for blank samples, 20 μL acetonitrile:water (1:1) was added) and 300 μl acetonitrile was added. The sample mixture was vortexed for approximately 3 min. After centrifugation at 10000 rpm for 5 min at 4° C., 100 μL of the upper layer was transferred to a new tube and added 200 μL 0.4% formic acid in water (pH 6.0). The mixture was vortexed for approximately 3 min before injected onto the LC/MS/MS system for analysis.
On the day of the assay, the frozen liver and brain samples were thawed unassisted at room temperature. An about 200 mg weighed sample of each thawed tissue was placed into a plastic tube with water (0.6 mL) to facilitate homogenization. Tissue processing was conducted using a homogenizer for approximately 1 min, 200 μl homogenate was transferred into a fresh Eppendorf tube. To each tube, 50 μL IS-D was added and mixed. Then 600 ul acetonitrile was added and the sample mixture was vortexed for approximately 3 min. After centrifugation at 10000 rpm for 5 min at 4° C., 400 μL of the upper layer was transferred to a new tube and evaporate the supernatant to dryness at 35° C. Reconstitute the residue with 200 μL of 0.4% formic acid in water (pH6.0), and vortex for 3 min, submit for LC-MS/MS analysis.
Frozen unknown plasma samples were completely thawed at room temperature and vortexed thoroughly. With a pipette, 50 μL of plasma was transferred into a 2.0 mL Eppendorf tube. 50 μL of 0.1N HCl and 800 μL ethyl acetate were added into each sample. The sample mixture was vortexed for approximately 3 min.

protein phosphatase PP2A = protein phosphatase PP2A (Homo sapiens, UniProt P67775); experiment: Inhibition of purified protein phosphatase PP2A; type: biochemical
Description: In vivo, endothall has a longer half-life that LB-100 on the order of 6 hours compared to about 1 hour or less for LB-100. […] A half-life of several hours of activity is clinically more desirable that much shorter durations. Modification of substituents of LB-100 provide opportunities to further enhance the clinical usefulness of LB-100 by for example improving oral absorption, uptake into specific organs bearing the disease process, for example, the brain, and further modifying the rate of conversion for effective delivery of parent compound and/or endothall to tissue.

in vivo = experiment: in vivo; parameters: species or system SD rats; conditions: rat, in vivo, iv, 1 mg/kg
Description: 105 was dissolved in 4% NaHCO3 in saline for IV administration. The detailed procedure of dosing solution preparation was presented in Appendix I.
Thirteen (13) animals were placed on the study. The animals in IV arm were free access to food and water. One extra animal was used for blank liver and plasma generation (5 mL per animal). The resulting blank liver and plasma was then applied to the development of bioanalytical method and sample bioanalysis for the entire study.
The IV injection was conducted via foot dorsal vein. Animals were free access to food and water before dose.
The animal is restrained manually. Approximately 150 μL of blood/time point is collected into sodium heparin tube via cardiac puncture for terminal bleeding (anesthetized under carbon dioxide). Blood sample will be put on ice and centrifuged to obtain plasma sample (2000 g, 5 min under 4° C.) within 10 minutes.
The animal will be euthanized with carbon dioxide inhalation. Open abdominal cavity with scissor to expose internal organs. Hold the carcass in an upright position and allow the organs to fall forward. Cut the connective tissues and remove the organs. Then the organs are rinsed with cold saline, dried on filtrate paper, placed into a screw-top tube and weighed, snap frozen by placing into dry-ice immediately.
Plasma and liver samples were stored at approximately −80° C. until analysis. The backup samples will be discarded after three weeks after in-life completion unless requested. The unused dosing solutions will be discarded within three weeks after completion of the study
Software: The PK parameters were determined by non-compartmental model of non-compartmental analysis tool, Pharsight Phoenix WinNonlin® 6.2 software.
Concentration data within 80%-120% of LLOQ was considered within normal instrumental variation and presented in the results. Terminal t1/2 calculation: Time points were automatic selected by “best fit” model for terminal half life estimation as the first option. Manual selection was applied when “best fit” could not well define the terminal phase.

Sequence of protein phosphatase PP2A (P67775 whole entry): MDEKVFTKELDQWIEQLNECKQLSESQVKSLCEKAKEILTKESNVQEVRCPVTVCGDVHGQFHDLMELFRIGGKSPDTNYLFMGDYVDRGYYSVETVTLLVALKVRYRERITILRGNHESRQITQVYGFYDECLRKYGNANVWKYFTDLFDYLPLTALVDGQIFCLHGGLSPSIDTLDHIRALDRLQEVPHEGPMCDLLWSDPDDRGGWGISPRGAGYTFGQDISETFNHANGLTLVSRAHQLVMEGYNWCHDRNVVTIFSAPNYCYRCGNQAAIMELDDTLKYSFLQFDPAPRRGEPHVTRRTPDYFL

SMILES: O=C(O)C1C2CCC(O2)C1C(=O)O (stereo not shown) [Endothal, 7-oxabicyclo[2.2.1]heptane-2,3-dicarboxylic acid]
- detectability in brain samples ([1]; endothal after single iv 153 at 1.25 mg/kg, 1.25 mg/kg): not detectable; also recorded: undetectable
- Cmax ([1]; female, SD, rat, in vivo, po, 1.25 mg/kg): 46.9 ng/mL
- AUC ([1]; female, Sprague-Dawley, rat, in vivo, iv, 1.25 mg/kg): 378 ng·h/mL
- Endothal plasma concentration ([1]; iv administration of 153, 10 hr): BLQ
- Endothal plasma concentration ([1]; iv administration of 153, 24 hr): BLQ
- Endothal plasma concentration ([1]; po administration of 153, 10 hr): BLQ
- AUClast in liver ([1]; rat, in vivo, iv, 1.25 mg/kg): 10820 ng·h/g
- IC50 (protein phosphatase PP2A): ~90 nM
- AUC(0-last) in liver (in vivo): 3152 ng·h/g
- AUC(0-∞) in liver (in vivo): 4896 ng·h/g
